Data on one molecule can be found in patent publication US9566240B2, “Compositions for multiphase, staggered, or sustained release of an active substance” (CLABBER GIRL CORPORATION, priority 2014, dated 2017).

Assay [1] concerns composited rumen contents. As to the kind of experiment: In vitro ruminal incubation: ruminal pH. To be noted: over a 24 hour feeding cycle. How it is done:
Each of the products was tested using in vitro ruminal incubation to determine the product's influence on ruminal pH, volatile fatty acid production in relation to changes in ruminal pH, and the associative effects of ruminal pH and volatile fatty acid on dry matter disappearance, starch disappearance, and neutral detergent fiber disappearance. Incubation solution containing water, composited rumen contents, and Van Soest buffer was placed in 1 L-incubation vessels (1 L oval deli cup with lid and Bunsen valve). Simulated feeding bags were obtained by placing 3 g of ground (Wiley Mill, 8 mm screen) total meal rations (10% alfalfa hay, 35% corn silage, 50% corn grain, and 5% vitamin/minerals) into 5 cm×10 cm bags with a pore size of 40 microns. […] Ruminal pH was measured during each incubation time. At zero hours and twelve hours, pH was also recorded before and after the simulated feeding. […] Dry matter disappearance, starch disappearance, and neutral detergent fiber disappearance were measured by removing replicate bags at the same hours the volatile fatty acid aliquots were taken, drying them in a forced-air oven at 60° C. to a constant weight, and storing them for future analysis.

In assay [2] the test system is composited rumen contents. As to the kind of experiment: In vitro ruminal incubation: volatile fatty acid production. How it is done:
Each of the products was tested using in vitro ruminal incubation to determine the product's influence on ruminal pH, volatile fatty acid production in relation to changes in ruminal pH, and the associative effects of ruminal pH and volatile fatty acid on dry matter disappearance, starch disappearance, and neutral detergent fiber disappearance. Incubation solution containing water, composited rumen contents, and Van Soest buffer was placed in 1 L-incubation vessels (1 L oval deli cup with lid and Bunsen valve). Simulated feeding bags were obtained by placing 3 g of ground (Wiley Mill, 8 mm screen) total meal rations (10% alfalfa hay, 35% corn silage, 50% corn grain, and 5% vitamin/minerals) into 5 cm×10 cm bags with a pore size of 40 microns. Product 1 was added to each of eight replicate feeding bags in an amount at 0.2273 g/L. Product 2 was added to another set of eight replicate bags in an amount of 0.3704 g/L. Product 3 was added to another set of eight replicate bags in an amount of 0.5710 g/L. Control was added to another set of eight replicate bags in an amount of 0.1 g/L. A fifth set of eight replicate bags contained just the 3g of ground total meal rations to serve as a “Blank” control. To simulate twice-a-day-feeding, four replicates from each set of replicates were added to the incubation vessels at zero hours (0 H), and four more were added at twelve hours (12 H). The incubation vessels were placed into a temperature controlled, air jacketed, anaerobic incubator (39° C., and 20% carbon dioxide) for the duration of their assigned incubation time. Ruminal pH was measured during each incubation time. At zero hours and twelve hours, pH was also recorded before and after the simulated feeding. […] Dry matter disappearance, starch disappearance, and neutral detergent fiber disappearance were measured by removing replicate bags at the same hours the volatile fatty acid aliquots were taken, drying them in a forced-air oven at 60° C. to a constant weight, and storing them for future analysis. […] The first feeding was monitored for 12 hours (2, 6, and 12). Then the second feeding was monitored at 14 and 18 hours which corresponded to the 2 and 6 hours post-feeding.

The subject of assay [3] is composited rumen contents. As to the kind of experiment: In vitro ruminal incubation: dry matter, starch and neutral detergent fiber disappearance. Here is the method:
Each of the products was tested using in vitro ruminal incubation to determine the product's influence on ruminal pH, volatile fatty acid production in relation to changes in ruminal pH, and the associative effects of ruminal pH and volatile fatty acid on dry matter disappearance, starch disappearance, and neutral detergent fiber disappearance.
Incubation solution containing water, composited rumen contents, and Van Soest buffer was placed in 1 L-incubation vessels (1 L oval deli cup with lid and Bunsen valve). Simulated feeding bags were obtained by placing 3 g of ground (Wiley Mill, 8 mm screen) total meal rations (10% alfalfa hay, 35% corn silage, 50% corn grain, and 5% vitamin/minerals) into 5 cm×10 cm bags with a pore size of 40 microns. Product 1 was added to each of eight replicate feeding bags in an amount at 0.2273 g/L. Product 2 was added to another set of eight replicate bags in an amount of 0.3704 g/L. Product 3 was added to another set of eight replicate bags in an amount of 0.5710 g/L. Control was added to another set of eight replicate bags in an amount of 0.1 g/L. A fifth set of eight replicate bags contained just the 3g of ground total meal rations to serve as a “Blank” control.
To simulate twice-a-day-feeding, four replicates from each set of replicates were added to the incubation vessels at zero hours (0 H), and four more were added at twelve hours (12 H). The incubation vessels were placed into a temperature controlled, air jacketed, anaerobic incubator (39° C., and 20% carbon dioxide) for the duration of their assigned incubation time.
Ruminal pH was measured during each incubation time. At zero hours and twelve hours, pH was also recorded before and after the simulated feeding. Volatile fatty acid production was measured by taking 50 ml aliquots of the supernatant of each incubation vessel at 0, 2, 6, 12, 14, 18, and 24 hours, acidifying the aliquot with 5 ml of 50% HCl, and freezing it for future analysis. Dry matter disappearance, starch disappearance, and neutral detergent fiber disappearance were measured by removing replicate bags at the same hours the volatile fatty acid aliquots were taken, drying them in a forced-air oven at 60° C. to a constant weight, and storing them for future analysis.
Dry matter, starch, and neutral detergent fiber concentrations were measured at 2, 4, 6, 10, 12, 16, 18, and 22 hours of incubation. The measurements for starch disappearance and neutral detergent fiber disappearance were made at 2, 6, 16, and 22 hours of incubation. The early times were selected to monitor the faster degradation of starch, and the later times to monitor the slower degradation of neutral detergent fiber. […]

The mark [4] stands for this setting: in vitro incubation, at the two peaks of 2 and 14 hours.
The mark [5] stands for this setting: in vitro incubation, overall values at 18 hours.

As to `O=C([O-])O.[Na+]` [Control, sodium bicarbonate], the “buffering of rumen pH” value in assay [1] is on record as “only a “flash” neutralization that was soon dissipated”. For the same molecule, the “total volatile fatty acids concentration” value in assay [2] (at 18 H, after the second feeding (12 H), FIG. 4) is “higher concentration at 18 H compared to that of Product 2”. In addition, the “ratio of even- to odd-numbered carbon chain VFAs, overall assessment” value in assay [2] (from Table 3, high total VFA plus high propionic acid without decrease in acetic acid) is reported as “superior to the other treatments”. For the same molecule, in assay [2] (setting [4]), the “A:P Peaks (acetic acid to propionic acid ratio at peak concentrations)” value amounted to 8.30; the “AB:P Peaks (sum of acetic and butyric acid to propionic acid ratio at peak concentrations)” value is on record as 9.39. Further, in assay [2] (setting [5]), the “A:P (acetic acid to propionic acid ratio)” value was determined as 11.61; the “AB:P (sum of acetic acid and butyric acid to propionic acid ratio)” value is recorded as 12.50. Further, in assay [3] (first 11 hours of the feeding cycle), the dry matter disappearance entry is given as “little dry matter disappearance”. The dry matter disappearance result in assay [3] (in vitro incubations, FIG. 8) is listed as “best results”. In addition, in assay [3] (in vitro incubations, FIG. 9), the starch disappearance entry is given as “best results”. The “neutral detergent fiber disappearance” value in assay [3] (in vitro incubations, FIG. 10) is “higher neutral detergent fiber disappearance over Products 1, 2, and 3, and Blank”.
